{"source": "patent US20210308436A1", "about": "“COMPLETE UPPER RESPIRATORY TRACT CLEANSING SYSTEM AND ITS USE” (priority 2013, published 2021)", "origin": "cited, not measured here", "tested_on": "perennial allergic rhinitis", "details": "1% solution in normal saline, once every 48 hours for 4 weeks, vs placebo wash (normal saline only)", "note": "Structures can show the parent of a compound that is named as a salt.", "data": [{"smiles": "CN[C@@H](C)[C@H](O)c1ccccc1", "note": "[ephedrine hydrochloride]", "values": [{"measurement": "peak nasal inspiratory flow rates", "result": "significant improvement"}, {"measurement": "symptom scores", "result": "significant improvement"}]}]}
